Results taken from ChEMBL document CHEMBL1146650, “1,7-annulated indolocarbazoles as cyclin-dependent kinase inhibitors” (Bioorg Med Chem Lett, 2004).

What was measured:
[1] = molecular target: Cyclin-dependent kinase 4/cyclin D1 (Homo sapiens, UniProt P11802); assay: Inhibitory activity against human Cyclin D1-cyclin-dependent kinase 4 activity; type: protein-complex assay
HCT-116 = assay: Cytotoxic activity against human colon HCT116 cell line; type: functional, cell-based
[2] = molecular target: Cyclin-dependent kinase 2/cyclin E (Homo sapiens, UniProt P24941); assay: Inhibition of human Cyclin E-cyclin-dependent kinase 2; type: protein-complex assay
[3] = molecular target: Cyclin-dependent kinase 4 (Homo sapiens, UniProt P11802); assay: Inhibition of Cyclin-dependent kinase 4
Sequence of Cyclin-dependent kinase 4 (P11802 whole entry): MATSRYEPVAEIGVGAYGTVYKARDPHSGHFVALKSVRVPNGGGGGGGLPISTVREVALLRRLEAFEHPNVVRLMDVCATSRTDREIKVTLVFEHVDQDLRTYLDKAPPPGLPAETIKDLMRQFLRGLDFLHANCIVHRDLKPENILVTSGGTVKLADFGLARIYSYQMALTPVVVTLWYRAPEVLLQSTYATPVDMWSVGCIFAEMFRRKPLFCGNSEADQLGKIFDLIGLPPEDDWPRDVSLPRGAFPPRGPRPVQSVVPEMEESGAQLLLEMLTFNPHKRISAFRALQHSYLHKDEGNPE

[4] = molecular target: Cyclin-dependent kinase 2 (Homo sapiens, UniProt P24941); assay: Inhibition of Cyclin-dependent kinase 2

Sequence of Cyclin-dependent kinase 4/cyclin D1 (P11802 whole entry): as above
Sequence of Cyclin-dependent kinase 4/cyclin D1 (P24385 whole entry, further chain): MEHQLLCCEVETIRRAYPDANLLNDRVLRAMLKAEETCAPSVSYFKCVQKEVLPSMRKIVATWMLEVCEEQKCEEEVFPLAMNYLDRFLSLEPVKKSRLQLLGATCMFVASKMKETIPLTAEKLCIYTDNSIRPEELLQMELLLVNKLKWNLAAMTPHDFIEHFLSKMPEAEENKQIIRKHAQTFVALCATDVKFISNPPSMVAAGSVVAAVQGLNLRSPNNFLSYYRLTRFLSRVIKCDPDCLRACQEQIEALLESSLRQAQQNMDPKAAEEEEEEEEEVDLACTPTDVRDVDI

IC50 [1] [nM] | IC50 [2] [nM] | SMILES | IC50 (HCT-116) [nM] | IC50 [3] [nM] | IC50 [4] [nM]
52 | – | O=C1NC(=O)c2c1c1c3ccc(CO)cc3[nH]c1c1c2c2cccc3c2n1CCC3 | 340 | – | –
50 | – | O=C1NC(=O)c2c1c1c3ccc(CN4CCCC4)cc3[nH]c1c1c2c2cccc3c2n1CCC3 | 170 | – | –
> 2000 | – | COC(=O)c1ccc2c(c1)[nH]c1c2c2c(c3c4cccc5c4n(c13)CCC5)C(=O)NC2=O | – | – | –
590 | – | O=C1NC(=O)c2c1c1c3ccc(-c4ccncc4)cc3[nH]c1c1c2c2cccc3c2n1CCC3 | 3290 | – | –
110 | > 200 | O=C1NC(=O)c2c1c1c3ccc(Cl)cc3[nH]c1c1c2c2cccc3c2n1CCC3 | 780 | – | –
> 2000 | – | O=C1NC(=O)c2c1c1c3cc(F)ccc3[nH]c1c1c2c2cccc3c2n1CCC3 | – | – | –
90 | – | O=C1NC(=O)c2c1c1c3ccc(CN4CCSCC4)cc3[nH]c1c1c2c2cccc3c2n1CCC3 | 600 | – | –
> 2000 | – | O=C1NC(=O)c2c1c1c3cc(F)c(F)cc3[nH]c1c1c2c2cccc3c2n1CCC3 | – | – | –
> 2000 | – | O=C1NC(=O)c2c1c1c3cc(Br)ccc3[nH]c1c1c2c2cccc3c2n1CCC3 | – | – | –
87 | – | O=C1NC(=O)c2c1c1c3ccc(CN4CCCCC4)cc3[nH]c1c1c2c2cccc3c2n1CCC3 | 320 | – | –
> 2000 | – | O=C1NC(=O)c2c1c1c([nH]c3cccc(F)c31)c1c2c2cccc3c2n1CCC3 | – | – | –
90 | 1000 | O=C1NC(=O)c2c1c1c3ccc(Br)cc3[nH]c1c1c2c2cccc3c2n1CCC3 | 2300 | – | –
420 | > 200 | O=C1NC(=O)c2c1c1c3ccc(F)cc3[nH]c1c1c2c2cccc3c2n1CCC3 | 2370 | – | –
75 | – | O=C1NC(=O)c2c1c1c3ccc(CN4CCOCC4)cc3[nH]c1c1c2c2cccc3c2n1CCC3 | 370 | – | –
– | – | O=C1NC(=O)c2c1c1c3ccccc3n3c1c1c2c2ccccc2n1[C@H]1CC[C@@H]3O1 | – | 680 | 540
94 | 1000 | O=C1NC(=O)c2c1c1c3ccccc3[nH]c1c1c2c2cccc3c2n1CCCC3 | 5160 | – | –
240 | > 2000 | O=C1NC(=O)c2c1c1c3ccccc3[nH]c1c1c2c2cccc3c2n1CC3 | 1020 | – | –
120 | > 2000 | O=C1NC(=O)c2c1c1c3ccccc3[nH]c1c1c2c2cccc3c2n1CCCCC3 | 1250 | – | –
75 | – | O=C1NC(=O)c2c1c1c3ccc(CN4CCC4)cc3[nH]c1c1c2c2cccc3c2n1CCC3 | 230 | – | –
> 2000 | – | COC(=O)c1ccc2[nH]c3c(c4c(c5c6cccc7c6n(c35)CCC7)C(=O)NC4=O)c2c1 | – | – | –
65 | – | O=C1NC(=O)c2c1c1c3ccc(CN4CCNCC4)cc3[nH]c1c1c2c2cccc3c2n1CCC3 | > 10000 | – | –
160 | – | O=C1NC(=O)c2c1c1c3ccc(-c4cccnc4)cc3[nH]c1c1c2c2cccc3c2n1CCC3 | 1130 | – | –
290 | > 2000 | O=C1NC(=O)c2c1c1c3ccc(C(F)(F)F)cc3[nH]c1c1c2c2cccc3c2n1CCC3 | 1480 | – | –
110 | > 1000 | O=C1NC(=O)c2c1c1c3ccccc3[nH]c1c1c2c2cccc3c2n1CCC3 | 1600 | – | –
79 | – | O=C1NC(=O)c2c1c1c3ccc(CN4CCCNCC4)cc3[nH]c1c1c2c2cccc3c2n1CCC3 | 7600 | – | –
170 | – | NCc1ccc2c(c1)[nH]c1c2c2c(c3c4cccc5c4n(c13)CCC5)C(=O)NC2=O | 2260 | – | –
